According to EP2657347A1, “Electrochemical competitive assay and use thereof” (Université Paris Diderot - Paris 7, priority 2012, dated 2013):

Biological target: D-Apt49
Assay: Redox-mediated catalytic cyclic voltammetry titration with aptamer
Assay type: binding
Method: All experiments were performed in 5 mM Tris buffer (pH 7) containing 10 mM MgCl2 and 50 mM NaCl (Recognition Buffer, RBr). The L-Tym concentration is always 5 µM. For cyclic voltammetric experiments, 1 µM [Os(bpy)3]2+ with 5 µM 1-Tym in a droplet of 50 µL RBr was used. So, before each experiment, the droplet is shaking with a micropipette. This procedure is repeated until we obtain a reproducible and stable voltammogram. Mother solution of Fc-1-Tym was a […] solution in DMF. This product is conserved at 4°C and seal with parafilm. Before each experiment, this solution is diluted 10 times in stabilized DMF, such as 0.2 µL in 50 µL of RBr leads to 5 µM of Fc-1-Tym.
Cyclic voltammetry measurements were performed with an AUTOLAB PGSTAT 12 potentiostat/galvanostat controlled by computer, and the data were acquired using GPES 4.9007 software (EcoChemie, The Netherlands). Small self-contained electrochemical cells made of 3 screen-printed electrodes on a flat substrate were used for all experiments. The electrodes were printed using a DEK model-65 screen-printer. Working electrodes were 4 mm diameter screen-printed carbon electrodes prepared using a commercial carbon ink (Electrodag PF-470 A) deposited on the top of an underlying Ag layer (Electrodag 418 SS). Counter electrode was obtained using an Ag ink (Electrodag 418 SS).
Before experiments, the screen-printed carbon electrodes were coated with bovine serum albumin (BSA) by immersing the electrodes in a 1 mg/mL BSA solution for 10 minutes at room temperature. The BSA-modified electrodes were next cycled between 0 V and 0.8 V at v = 0.05 V/s, until of the capacitive background current in cyclic voltammetry was stablized.
The 49-mer aptamer we have used (see here above) is a sequence similar to the one that was previously selected by Vianini et al and successfully applied to chromatographic- and fluorescence-based L-Tym assays. Since direct electrochemical oxidation of phenolic compounds generally leads to electrode passivation and thus to poorly reproducible anodic peak current in cyclic voltammetry (CV), the electrochemical detection of L-Tym was performed by redox-mediated catalytic oxidation of the phenolic function. For such a purpose, we have used the one-electron redox mediator couple [Os^III/II(bpy)3]^3+/2+ which, according to its relatively high standard potential (E^0=+0.58 V vs. Ag/AgCl), is capable to efficiently catalyze the oxidation of phenolic compounds. [drawing 51]
The linear dependence of the peak current with both the square root of scan rate, v, and L-Tym concentration, indicates conditions of total catalysis for which the catalytic peak current response, ip, can be expressed by eq 1. ip = 0.609nFSCT^0 sqrt(DT)sqrt(fv/RT) [formula] where n is the number of electron involved in the catalytic reaction, F the Faraday constant, S the electrode area, C^0T the bulk concentration of L-Tym, and DT the diffusion coefficient of L-Tym. After aptamer addition, the binding reaction (eq 2) is rapidly set at equilibrium. [drawing 53] with Kd the dissociation constant. On the basis of a classical law of action mass and mass balance (i.e., C^0T = CT + CRT, with CT and CRT the free and receptor-bound target concentrations), and assuming a 1:1 binding stoichiometry, the free (χƒ) mole fraction of target in the bulk solution can thus be estimated by eq 3. χf = (CT)/(CT^0) = 1-(Kd + CT^0 + CR^0 -sqrt(((Kd+CT^0+CR^0))^2 -4CT^0 CR^0))/(2CT^0) [formula]
Here, C^0R is the total concentration of the aptamer receptor added to the solution. Under the assumption of a slow interconversion of free and bound target on the time scale of CV experiments, the catalytic peak current can thus be expressed by a linear combination of the catalytic currents related to the free and bound target through eq 4. ip = 0.609nFSCT^0 sqrt(fv/RT)[χfsqrt(DT)+(1-χf)sqrt(DRT)] [formula] where DT and DRT are the diffusion coefficients of the free and receptor-bound target, respectively. […]

Kd (5 µM target, 1 µM [Os(bpy)3]2+, 5 mM Tris buffer pH 7.0, 50 mM NaCl, 10 mM MgCl2, nonlinear fit of eq 5): 2900 ± 300 nM
DRT (diffusion coefficient of the receptor-bound target) (L-Tym bound to D-Apt49, assuming one electron exchanged): 1.4 × 10^-6 cm^2 s^-1
DT (diffusion coefficient of the free target) (free L-Tym, assuming one electron exchanged): 7 × 10^-6 cm^2 s^-1
Structure (SMILES): NC(=O)[C@@H](N)Cc1ccc(O)cc1 [L-Tym, L-tyrosinamide]
